Reference: ChEMBL document CHEMBL4613209, “Quinolone hybrids and their anti-cancer activities: An overview” (Eur J Med Chem, 2019)

Assays:
PC-3 = experiment: Cytotoxicity against human PC3 cells assessed as reduction in cell viability; assay type: functional, cell-based
HepG2 = experiment: Cytotoxicity against human HepG2 cells assessed as reduction in cell viability; assay type: functional, cell-based
NCI-H460 = experiment: Cytotoxicity against human NCI-H460 cells assessed as reduction in cell viability; assay type: functional, cell-based
MGC-803 = experiment: Cytotoxicity against human MGC803 cells assessed as reduction in cell viability; assay type: functional, cell-based
SW-620 = experiment: Cytotoxicity against human SW620 cells assessed as reduction in cell viability; assay type: functional, cell-based
GES1 = experiment: Cytotoxicity against human GES-1 cells assessed as reduction in cell viability; assay type: cell-based
MCF7 [1] = experiment: Cytotoxicity against human MCF7 cells assessed as reduction in cell viability; assay type: functional, cell-based
HL-60 [2] = experiment: Antiproliferative activity against human HL60 cells by MTT assay; assay type: functional, cell-based
SMMC-7721 = experiment: Antiproliferative activity against human SMMC7721 cells by MTT assay; assay type: functional, cell-based
L1210 = experiment: Antiproliferative activity against mouse L1210 cells by MTT assay; assay type: functional, cell-based
HL-60 [3] = experiment: Antiproliferative activity against human HL60 cells after 72 hrs by MTT assay; assay type: functional, cell-based; conditions: HL-60, 72 h
A549 = experiment: Antiproliferative activity against human A549 cells after 72 hrs by MTT assay; assay type: functional, cell-based; conditions: A549, 72 h
MCF7 [4] = experiment: Cytotoxicity against human MCF7 cells assessed as reduction in cell viability by MTT assay; assay type: functional, cell-based
SW480 = experiment: Cytotoxicity against human SW480 cells assessed as reduction in cell viability by MTT assay; assay type: functional, cell-based
SK-MEL3 = experiment: Cytotoxicity against human SK-MEL-3 cells assessed as reduction in cell viability by MTT assay; assay type: functional, cell-based
A-431 = experiment: Cytotoxicity against human A431 cells assessed as reduction in cell viability by MTT assay; assay type: functional, cell-based
EJ = experiment: Cytotoxicity against human EJ cells assessed as reduction in cell viability by MTT assay; assay type: functional, cell-based

| SMILES | IC50 (HL-60 [3]) | IC50 (A549) | IC50 (PC-3) | IC50 (HepG2) | IC50 (NCI-H460) | IC50 (MGC-803) | IC50 (SW-620) | IC50 (GES1) | IC50 (MCF7 [1]) | other results |
| --- | --- | --- | --- | --- | --- | --- | --- | --- | --- | --- |
| C[C@H]1COc2c(N3CCN(C)CC3)c(F)cc3c(=O)c(-c4nnc(NC(=O)CCCCC(=O)Nc5ccccc5N)s4)cn1c23 | – | – | 46 to 203 nM | 46 to 203 nM | 46 to 203 nM | 46 to 203 nM | 46 to 203 nM | > 81500 nM | 46 to 203 nM | – |
| C[C@H]1COc2c(N3CCN(C)CC3)c(F)cc3c(=O)c(-c4nnc(NC(=O)CCCC(=O)Nc5ccccc5N)s4)cn1c23 | – | – | 46 to 203 nM | 46 to 203 nM | 46 to 203 nM | 46 to 203 nM | 46 to 203 nM | > 81500 nM | 46 to 203 nM | – |
| O=C(O)c1cn(C2CC2)c2c(c1=O)C=C(F)C1=NN=C(c3cccc([N+](=O)[O-])c3)CN12 | – | – | – | – | – | – | – | – | – | IC50 (HL-60 [2]): 1000 to 48600 nM; IC50 (SMMC-7721): 1600 nM; IC50 (L1210): 3200 nM |
| C[C@H]1COc2c(N3CCN(C)CC3)c(F)cc3c(=O)c(-c4nnc(NC(=O)CCCCCCC(=O)Nc5ccccc5N)s4)cn1c23 | – | – | 46 to 203 nM | 46 to 203 nM | 46 to 203 nM | 46 to 203 nM | 46 to 203 nM | > 81500 nM | 46 to 203 nM | – |
| C[C@H]1COc2c(N3CCN(C)CC3)c(F)cc3c(=O)c(-c4nnc(NC(=O)CCCC(=O)NO)s4)cn1c23 | – | – | 19 to 127 nM | 19 to 127 nM | 19 to 127 nM | 19 to 127 nM | 19 to 127 nM | > 81500 nM | 19 to 127 nM | – |
| C[C@H]1COc2c(N3CCN(C)CC3)c(F)cc3c(=O)c(-c4nnc(NC(=O)CCCCCCCCC(=O)NO)s4)cn1c23 | – | – | 19 to 127 nM | 19 to 127 nM | 19 to 127 nM | 19 to 127 nM | 19 to 127 nM | > 81500 nM | 19 to 127 nM | – |
| N=C(NS(=O)(=O)c1ccccc1C(F)(F)F)N1CCN(c2cc3c(cc2F)c(=O)c(C(=O)O)cn3C2CC2)CC1 | 32 to 161 nM | 32 to 161 nM | – | – | – | – | – | – | – | – |
| Cc1ccc(C2=NN=C3C(F)=Cc4c(n(C5CC5)cc(C(=O)O)c4=O)N3C2)cc1 | – | – | – | – | – | – | – | – | – | IC50 (HL-60 [2]): 1000 to 48600 nM; IC50 (SMMC-7721): 1000 to 48600 nM; IC50 (L1210): 1000 to 48600 nM |
| C[C@H]1COc2c(N3CCN(C)CC3)c(F)cc3c(=O)c(-c4nnc(NC(=O)CCCCCCC(=O)O)s4)cn1c23 | – | – | 1100 to 14300 nM | 1100 to 14300 nM | 1100 to 14300 nM | 1100 to 14300 nM | 1100 to 14300 nM | > 81500 nM | 1100 to 14300 nM | – |
| Cc1ccccc1C1=NN=C2C(F)=Cc3c(n(C4CC4)cc(C(=O)O)c3=O)N2C1 | – | – | – | – | – | – | – | – | – | IC50 (HL-60 [2]): 1000 to 48600 nM; IC50 (SMMC-7721): 1000 to 48600 nM; IC50 (L1210): 1000 to 48600 nM |
| CCn1cc(C(=O)O)c(=O)c2cc(F)c(N3CCNCC3)cc21 [NORFLOXACIN] | > 302 nM | > 302 nM | – | – | – | – | – | – | – | IC50 (MCF7 [4]): 137000 to 238000 nM; IC50 (SW480): 137000 to 238000 nM; IC50 (SK-MEL3): 137000 to 238000 nM; IC50 (A-431): 137000 to 238000 nM; IC50 (EJ): 137000 to 238000 nM |
| CCn1cc(C(=O)O)c(=O)c2cc(F)c(N3CCN(C(=N)NS(=O)(=O)c4ccc(C)cc4)CC3)cc21 | 32 to 161 nM | 32 to 161 nM | – | – | – | – | – | – | – | – |
| C[C@H]1COc2c(N3CCN(C)CC3)c(F)cc3c(=O)c(-c4nnc(NC(=O)CCCCCC(=O)Nc5ccccc5N)s4)cn1c23 | – | – | 46 to 203 nM | 46 to 203 nM | 46 to 203 nM | 46 to 203 nM | 46 to 203 nM | > 81500 nM | 46 to 203 nM | – |
| COc1ccc(C2=NN=C3C(F)=Cc4c(n(C5CC5)cc(C(=O)O)c4=O)N3C2)cc1 | – | – | – | – | – | – | – | – | – | IC50 (HL-60 [2]): 1000 to 48600 nM; IC50 (SMMC-7721): 1000 to 48600 nM; IC50 (L1210): 1000 to 48600 nM |
| N=C(NS(=O)(=O)c1ccc(Cl)cc1)N1CCN(c2cc3c(cc2F)c(=O)c(C(=O)O)cn3C2CC2)CC1 | 32 to 161 nM | 32 to 161 nM | – | – | – | – | – | – | – | – |
| C[C@H]1COc2c(N3CCN(C)CC3)c(F)cc3c(=O)c(-c4nnc(NC(=O)CCCCC(=O)NO)s4)cn1c23 | – | – | 19 to 127 nM | 19 to 127 nM | 19 to 127 nM | 19 to 127 nM | 19 to 127 nM | > 81500 nM | 19 to 127 nM | – |
| COc1ccccc1C1=NN=C2C(F)=Cc3c(n(C4CC4)cc(C(=O)O)c3=O)N2C1 | – | – | – | – | – | – | – | – | – | IC50 (HL-60 [2]): 1000 to 48600 nM; IC50 (SMMC-7721): 1000 to 48600 nM; IC50 (L1210): 1000 to 48600 nM |
| O=C(O)c1cn(C2CC2)c2c(c1=O)C=C(F)C1=NN=C(c3ccc(O)cc3)CN12 | – | – | – | – | – | – | – | – | – | IC50 (HL-60 [2]): 1000 to 48600 nM; IC50 (SMMC-7721): 1000 to 48600 nM; IC50 (L1210): 1000 to 48600 nM |

Continued, in another order:

| IC50 (HL-60 [3]) | IC50 (A549) | SMILES | IC50 (PC-3) | IC50 (HepG2) | IC50 (NCI-H460) | IC50 (MGC-803) | IC50 (SW-620) | IC50 (GES1) | IC50 (MCF7 [1]) | other results |
| --- | --- | --- | --- | --- | --- | --- | --- | --- | --- | --- |
| 32 to 161 nM | 32 to 161 nM | N=C(NS(=O)(=O)c1ccccc1)N1CCN(c2cc3c(cc2F)c(=O)c(C(=O)O)cn3C2CC2)CC1 | – | – | – | – | – | – | – | – |
| 32 to 161 nM | 32 to 161 nM | N=C(NS(=O)(=O)c1ccc(C(F)(F)F)cc1)N1CCN(c2cc3c(cc2F)c(=O)c(C(=O)O)cn3C2CC2)CC1 | – | – | – | – | – | – | – | – |
| 32 to 161 nM | 32 to 161 nM | CCn1cc(C(=O)O)c(=O)c2cc(F)c(N3CCN(C(=N)NS(=O)(=O)c4ccccc4C(F)(F)F)CC3)cc21 | – | – | – | – | – | – | – | – |
| 32 to 161 nM | 32 to 161 nM | CCn1cc(C(=O)O)c(=O)c2cc(F)c(N3CCN(C(=N)NS(=O)(=O)c4ccccc4)CC3)cc21 | – | – | – | – | – | – | – | – |
